Source: ChEMBL document CHEMBL1909046, “DrugMatrix in vitro pharmacology data”

Experiments:
[1] = molecular target: C-C chemokine receptor type 5 (Homo sapiens, UniProt P51681); format: cell membranes, Membrane; settings: hek293; note: in other assays of this panel Not Active means under 50% inhibition at 10 µM
[2] = molecular target: Sodium-dependent noradrenaline transporter (Homo sapiens, UniProt P23975); experiment: DRUGMATRIX: Norepinephrine Transporter radioligand binding (ligand: [125I] RTI-55); format: cell membranes, MDCK, Membrane; settings: mdck; Not Active = under 50% inhibition at 10 µM
[3] = molecular target: Melanocortin receptor 3 (Homo sapiens, UniProt P41968); format: cell membranes, HEK293, Membrane; settings: hek293; note: in other assays of this panel Not Active means under 50% inhibition at 10 µM
[4] = DRUGMATRIX: GABAA, Muscimol, Central radioligand binding (ligand: [3H] Muscimol); format: cell membranes, Rattus norvegicus, Wistar, Brain, Membrane; settings: Not Active = under 50% inhibition at 10 µM
[5] = molecular target: Melanocortin receptor 5 (Homo sapiens, UniProt P33032); format: cell membranes, HEK293, Membrane; settings: hek293; note: in other assays of this panel Not Active means under 50% inhibition at 10 µM
[6] = molecular target: T1, Amine oxidase [flavin-containing] A (Homo sapiens, UniProt P21397); experiment: DRUGMATRIX: Monoamine Oxidase MAO-A enzyme inhibition (substrate: Kynuramine); parameters: species or system BTI-TN-5B1-4; settings: bti-tn-5b1-4; Not Active = under 50% inhibition at 10 µM
T1 sequence (P21397 whole entry): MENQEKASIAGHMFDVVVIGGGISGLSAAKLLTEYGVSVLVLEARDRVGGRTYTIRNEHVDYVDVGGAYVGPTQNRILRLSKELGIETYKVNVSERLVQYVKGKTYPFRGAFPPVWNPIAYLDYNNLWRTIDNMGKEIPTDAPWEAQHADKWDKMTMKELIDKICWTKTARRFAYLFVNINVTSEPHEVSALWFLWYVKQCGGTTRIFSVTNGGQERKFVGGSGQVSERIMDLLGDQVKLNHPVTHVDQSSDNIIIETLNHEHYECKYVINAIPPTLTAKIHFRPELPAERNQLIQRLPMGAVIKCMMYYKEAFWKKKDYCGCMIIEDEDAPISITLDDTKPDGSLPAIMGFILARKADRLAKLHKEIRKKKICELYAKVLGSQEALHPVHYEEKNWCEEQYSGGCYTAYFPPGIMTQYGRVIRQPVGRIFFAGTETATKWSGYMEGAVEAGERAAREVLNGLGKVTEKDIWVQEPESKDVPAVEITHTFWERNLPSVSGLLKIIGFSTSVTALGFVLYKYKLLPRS

Chain of Sodium-dependent noradrenaline transporter (P23975 whole entry): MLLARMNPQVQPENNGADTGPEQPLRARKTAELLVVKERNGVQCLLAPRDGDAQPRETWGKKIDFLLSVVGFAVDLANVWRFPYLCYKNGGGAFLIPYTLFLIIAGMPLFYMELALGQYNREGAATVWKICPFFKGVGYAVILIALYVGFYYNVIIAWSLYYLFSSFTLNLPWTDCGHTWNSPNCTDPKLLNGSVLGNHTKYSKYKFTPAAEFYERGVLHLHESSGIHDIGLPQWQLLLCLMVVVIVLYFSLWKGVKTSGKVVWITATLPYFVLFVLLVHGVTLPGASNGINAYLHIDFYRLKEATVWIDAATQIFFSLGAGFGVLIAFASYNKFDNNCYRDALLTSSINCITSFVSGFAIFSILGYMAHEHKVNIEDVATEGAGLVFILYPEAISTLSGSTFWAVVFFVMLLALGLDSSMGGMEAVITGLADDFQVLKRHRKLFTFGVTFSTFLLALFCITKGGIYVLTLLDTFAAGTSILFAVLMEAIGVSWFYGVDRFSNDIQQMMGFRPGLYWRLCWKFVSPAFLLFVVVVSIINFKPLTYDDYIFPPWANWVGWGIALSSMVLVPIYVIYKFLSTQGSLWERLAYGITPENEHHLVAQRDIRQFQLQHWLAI
Chain of C-C chemokine receptor type 5 (P51681 whole entry): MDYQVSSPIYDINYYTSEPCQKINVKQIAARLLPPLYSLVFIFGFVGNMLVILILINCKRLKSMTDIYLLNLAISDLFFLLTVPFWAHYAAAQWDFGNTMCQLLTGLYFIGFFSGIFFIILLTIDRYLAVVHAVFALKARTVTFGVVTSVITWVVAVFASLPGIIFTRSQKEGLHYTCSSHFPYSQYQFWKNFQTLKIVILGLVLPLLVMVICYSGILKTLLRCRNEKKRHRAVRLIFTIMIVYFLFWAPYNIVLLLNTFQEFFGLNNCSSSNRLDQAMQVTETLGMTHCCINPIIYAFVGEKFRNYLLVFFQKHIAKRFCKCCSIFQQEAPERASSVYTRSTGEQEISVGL
Chain of Melanocortin receptor 5 (P33032 whole entry): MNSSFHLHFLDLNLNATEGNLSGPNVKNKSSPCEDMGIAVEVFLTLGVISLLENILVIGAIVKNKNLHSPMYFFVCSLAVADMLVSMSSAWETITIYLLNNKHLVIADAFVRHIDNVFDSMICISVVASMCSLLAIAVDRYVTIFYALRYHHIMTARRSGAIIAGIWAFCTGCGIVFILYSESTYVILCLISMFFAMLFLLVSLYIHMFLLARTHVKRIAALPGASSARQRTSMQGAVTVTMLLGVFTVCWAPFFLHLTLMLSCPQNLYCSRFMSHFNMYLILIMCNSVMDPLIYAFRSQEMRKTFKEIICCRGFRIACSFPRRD
Chain of Melanocortin receptor 3 (P41968 whole entry): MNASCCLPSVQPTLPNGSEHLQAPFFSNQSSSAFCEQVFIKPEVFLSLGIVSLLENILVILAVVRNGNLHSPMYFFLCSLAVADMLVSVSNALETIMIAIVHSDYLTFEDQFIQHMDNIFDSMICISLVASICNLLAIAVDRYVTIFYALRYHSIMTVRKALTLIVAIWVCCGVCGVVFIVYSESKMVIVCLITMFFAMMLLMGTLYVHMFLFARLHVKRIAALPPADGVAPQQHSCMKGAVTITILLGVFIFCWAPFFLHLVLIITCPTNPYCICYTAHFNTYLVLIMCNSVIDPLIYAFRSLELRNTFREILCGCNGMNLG

N#CC(C#N)=Cc1ccc(O)c(O)c1 [TYRPHOSTIN 23]
Not Active: IC50 [1] | IC50 [2] | IC50 [3] | IC50 [4] | Ki [4] | IC50 [5] | IC50 [6]

CC[C@]1(O)C[C@H]2CN(CCc3c([nH]c4ccccc34)[C@@](C(=O)OC)(c3cc4c(cc3OC)N(C=O)[C@H]3[C@@](O)(C(=O)OC)[C@H](OC(C)=O)[C@]5(CC)C=CCN6CC[C@]43[C@@H]65)C2)C1 [VINCRISTINE]
Not Active: IC50 [1] | IC50 [2] | IC50 [3] | IC50 [4] | Ki [4] | IC50 [5] | IC50 [6]

CCCOc1ccccc1-c1nc2nn[nH]c2c(=O)[nH]1 [ZAPRINAST]
Not Active: IC50 [1] | IC50 [2] | IC50 [3] | IC50 [4] | Ki [4] | IC50 [5] | IC50 [6]

SODIUM NITROPRUSSIDE
Not Active: IC50 [1] | Ki [1] | IC50 [2] | Ki [2] | IC50 [3] | Ki [3] | IC50 [4] | Ki [4] | IC50 [5] | Ki [5] | IC50 [6] | Ki [6]
